# Assay results published in ChEMBL document CHEMBL6120970, “Discovery and Functional Characterization of a Potent, Selective, and Metabolically Stable PROTAC of the Protein Kinases DYRK1A and DYRK1B” (J Med Chem, 2024).
# Calls of active or inactive are those of the source. No cut-off for these calls is given here.
# Columns and labels:
# [1] = AUC infinity in mouse at 10 mg/kg, ip administered as single dose; type: ADME, organism-based; conditions: in vivo
# [2] = tested on: SH-SY5Y; assay: Cytotoxicity against human SH-SY5Y cells assessed as reduction in cell viability at 100 nM measured upto 96 hrs by real-time cell analysis; type: functional, cell-based
# [3] = biological target: T1, Protein cereblon/Dual specificity tyrosine-phosphorylation-regulated kinase 1A (Homo sapiens, UniProt Q13627+Q96SW2); assay: Competitive binding affinity to CRBN/DYRK1A (unknown origin) assessed as residence time; type: protein assay
# [4] = biological target: T1, Protein cereblon/Dual specificity tyrosine-phosphorylation-regulated kinase 1A; assay: PROTAC activity at CRBN/DYRK1A in HEK293 cells assessed as induction of degradation of DYRK1A at 100 nM incubated for 24 hrs; type: cell-based
# [5] = Metabolic stability in human liver microsomes assessed as intrinsic clearance; type: ADME, Microsome; conditions: read-out: CLH
# [6] = biological target: T1, Protein cereblon/Dual specificity tyrosine-phosphorylation-regulated kinase 1A; assay: PROTAC activity at CRBN/DYRK1A in HEK293 cells expressing GFP-SF3B1 assessed as inhibition of SF3B1 phosphorylation at 10 nM measured for 48 hrs by Western blot analysis; type: cell-based
# [7] = AUC last in mouse at 10 mg/kg, po administered as single dose; type: ADME, organism-based; conditions: in vivo
# [8] = tested on: SH-SY5Y; assay: Cytotoxicity against human SH-SY5Y cells assessed as reduction in cell viability at 100 nM measured upto 96 hrs in presence of cisplatin by real-time cell analysis; type: functional, cell-based
# [9] = Metabolic stability in mouse liver microsomes assessed as intrinsic clearance; type: ADME, Microsome; conditions: read-out: CLH
# [10] = biological target: T1, Protein cereblon/Dual specificity tyrosine-phosphorylation-regulated kinase 1A; assay: PROTAC activity at CRBN/DYRK1A in HEK293 cells assessed as induction of degradation of DYRK1A at 100 nM pretreated with leucettine-41 followed by compound addition and incubated for 8 hrs; type: cell-based
# [11] = Tmax in mouse at 10 mg/kg, ip administered as single dose; type: ADME, organism-based; conditions: in vivo
# [12] = tested on: HEK293; assay: Effect on DCAF7 expression in HEK293 cells at 1 to 10000 nM; type: functional, cell-based; conditions: Homo sapiens, dose 1-10000 nM
# [13] = Permeability of the compound by PAMPA method; type: ADME; conditions: read-out: permeability
# [14] = biological target: T2, Protein cereblon/Dual specificity tyrosine-phosphorylation-regulated kinase 1B (Homo sapiens) (UniProt Q9Y463+Q96SW2); assay: PROTAC activity at CRBN/DYRK1B in Flp-In-T-REx-293 cells overexpressing GFP-DYRK1B assessed as initial rate of degradation at 1 uM measured upto 6 hrs by fluorescence based phase contrast microscopy analysis; type: cell-based
# [15] = Volume of distribution at steady state in mouse at 1 mg/kg, iv administered as single dose; type: ADME, organism-based; conditions: in vivo, read-out: Vdss
# [16] = biological target: T1, Protein cereblon/Dual specificity tyrosine-phosphorylation-regulated kinase 1A; assay: PROTAC activity at CRBN/HibiT-tagged DYRK1A in HEK293 cells assessed as induction of degradation of DYRK1A at 1 uM measured after 24 hrs by Western blot analysis; type: cell-based
# [17] = biological target: T1, Protein cereblon/Dual specificity tyrosine-phosphorylation-regulated kinase 1A; assay: PROTAC activity at CRBN/HibiT-tagged DYRK1A in Flp-In-T-REx-293 cells assessed as induction of degradation of DYRK1A by measuring maximum efficacy at 1 uM measured after 24 hrs by NanoBiT luciferase assay relative to control; type: cell-based
# [18] = Solubility of the compound in PBS buffer; type: physicochemical
# [19] = Half life in mouse at 1 mg/kg, iv administered as single dose; type: ADME, organism-based; conditions: in vivo
# [20] = Metabolic stability in mouse liver microsomes assessed as half life; type: ADME, Microsome
# [21] = Cmax in mouse at 10 mg/kg, po administered as single dose; type: ADME, organism-based; conditions: in vivo
# [22] = AUC infinity in mouse at 1 mg/kg, iv administered as single dose; type: ADME, organism-based; conditions: in vivo
# [23] = biological target: T2, Protein cereblon/Dual specificity tyrosine-phosphorylation-regulated kinase 1B (Homo sapiens); assay: PROTAC activity at CRBN/HibiT-tagged DYRK1B in Flp-In-T-REx-293 cells assessed as induction of degradation of DYRK1B by measuring maximum efficacy at 1 uM measured after 24 hrs by NanoBiT luciferase assay relative to control; type: cell-based
# [24] = biological target: T1, Protein cereblon/Dual specificity tyrosine-phosphorylation-regulated kinase 1A; assay: PROTAC activity at CRBN/DYRK1A in HEK293 cells assessed as induction of degradation of DYRK1A at 100 nM pretreated with CB-5083 followed by compound addition and incubated for 8 hrs; type: cell-based
# [25] = tested on: HEK293; assay: Downregulation of DYRK1B mRNA expression in HEK293 cells at 100 nM measured after 24 hrs by qRT-PCR analysis; type: functional, cell-based; conditions: Homo sapiens
# [26] = MRT in mouse at 1 mg/kg, iv administered as single dose; type: ADME, organism-based; conditions: in vivo
# [27] = AUClast in mouse at 1 mg/kg, iv administered as single dose; type: ADME, organism-based; conditions: in vivo
# [28] = Permeability of the compound in human Caco-2 cells across basolateral side to apical side; type: ADME, cell-based; conditions: read-out: permeability
# [29] = biological target: T1, Protein cereblon/Dual specificity tyrosine-phosphorylation-regulated kinase 1A; assay: PROTAC activity at CRBN/DYRK1A in human SH-SY5Y cells assessed as induction of degradation of DYRK1A at 100 nM incubated for 24 hrs; type: cell-based
# [30] = biological target: T1, Protein cereblon/Dual specificity tyrosine-phosphorylation-regulated kinase 1A; assay: PROTAC activity at CRBN/DYRK1A in Flp-In-T-REx-293 cells overexpressing GFP-DYRK1A assessed as maximal reduction of GFP fluorescence at 1 uM measured upto 6 hrs by fluorescence based phase contrast microscopy analysis relative to control; type: cell-based
# [31] = biological target: T2, Protein cereblon/Dual specificity tyrosine-phosphorylation-regulated kinase 1B (Homo sapiens); assay: PROTAC activity at CRBN/DYRK1B in HEK293 cells overexpressing DYRK1B p65 assessed as induction of degradation of DYRK1B at 1 uM measured after 24 hrs by Western blot analysis; type: cell-based
# [32] = Clearance in mouse at 1 mg/kg, iv administered as single dose; type: ADME, organism-based; conditions: in vivo
# [33] = Solubility of the compound in FeSSIF buffer; type: physicochemical
# [34] = biological target: T1, Protein cereblon/Dual specificity tyrosine-phosphorylation-regulated kinase 1A; assay: PROTAC activity at CRBN/DYRK1A in human A549 cells assessed as induction of degradation of DYRK1A at 100 nM incubated for 24 hrs; type: cell-based
# [35] = Metabolic stability in rat liver microsomes assessed as intrinsic clearance; type: ADME, Microsome; conditions: read-out: CLH
# [36] = biological target: T1, Protein cereblon/Dual specificity tyrosine-phosphorylation-regulated kinase 1A; assay: PROTAC activity at CRBN/DYRK1A in HEK293 cells assessed as induction of degradation of DYRK1A incubated for 24 hrs; type: cell-based
# [37] = biological target: T1, Protein cereblon/Dual specificity tyrosine-phosphorylation-regulated kinase 1A; assay: PROTAC activity at CRBN/DYRK1A in SH-SY5Y cells assessed as induction of degradation of DYRK1A at 100 nM incubated for 24 hrs; type: cell-based
# [38] = Half life in mouse plasma; type: ADME, cell-free
# [39] = biological target: Protein cereblon/Dual specificity tyrosine-phosphorylation-regulated kinase 1B (Homo sapiens, UniProt Q96SW2+Q9Y463); assay: Competitive binding affinity to CRBN/DYRK1B (unknown origin) assessed as dissociation constant; type: protein assay
# [40] = biological target: T1, Protein cereblon/Dual specificity tyrosine-phosphorylation-regulated kinase 1A; assay: PROTAC activity at CRBN/DYRK1A in human A549 cells assessed as induction of degradation of DYRK1A at 100 nM incubated for 8 hrs relative to control; type: cell-based
# [41] = Tmax in mouse at 10 mg/kg, po administered as single dose; type: ADME, organism-based; conditions: in vivo
# [42] = Solubility of the compound in FaSSIF buffer; type: physicochemical
# [43] = Oral availability in mouse at 10 mg/kg administered as single dose; type: ADME, organism-based; conditions: in vivo
compound,measurement,setting,value
Cc1nc2ccc(-c3ccnc(N)c3)nc2n1-c1ccc(N2CCN(CC#Cc3ccc(N4CCC(C(=O)N5CCC(n6cc(CNc7cccc8c7C(=O)N(C7CCC(=O)NC7=O)C8=O)cn6)CC5)CC4)nc3)CC2)c(F)c1 (stereo not drawn),AUC(0-inf),[1],27100 ng·h/mL
same,Activity,[2],Active
same,TIME,[3],0.383 h
same,Activity,[4],Active
same,CLint scaled,[5],10.1 mL/min/kg
same,Activity,[6],Active
same,AUC(0-t),[7],56 ng·h/mL
same,Activity,[8],Active; Compound Showed Moderate Toxicity
same,CLint scaled,[9],3.1 mL/min/kg
same,Activity,[10],inactive
same,Tmax,[11],15 min
same,Activity,[12],inactive
same,Papp,[13],< 0.005 ×10⁻⁶ cm/s
same,Activity,[14],1.16 h⁻¹
same,Vd,[15],0.614 L/kg
same,Activity,[16],Active
same,Emax,[17],84%
same,solubility,[18],< 9 nM
same,half-life,[19],200 min
same,half-life,[20],443 min
same,Cmax,[21],18.5 ng/mL
same,AUC(0-inf),[22],2470 ng·h/mL
same,Emax,[23],66%
same,Activity,[24],inactive
same,Activity,[25],inactive
same,MRT,[26],1.4 h
same,AUC(0-t),[27],2460 ng·h/mL
same,Papp B→A,[28],< 0.243 ×10⁻⁶ cm/s
same,Activity,[29],Active
same,Emax,[30],98%
same,Activity,[31],inactive
same,clearance,[32],7.1 mL/min/kg
same,solubility,[33],2.09 µM
same,Activity,[34],Active
same,CLint scaled,[35],14 mL/min/kg
same,DC50,[36],12.3 nM
same,Activity,[37],Active
same,half-life,[38],418 min
same,Kd,[39],16 nM
same,Activity,[40],100%
same,Tmax,[41],30 min
same,solubility,[42],0.16 µM
same,bioavailability,[43],0.25%
